Earlier results in patent US20160128340A1, “Pest control formulation composed of Beauveria bassiana, Cold Pressed Neem Oil and Refined Pyrethrum Extract, and methods of making and using same” (priority 2014, published 2016).

System: Bemisia tabaci
Details: Bemisia tabaci population collected in a floriculture greenhouse

Compound	resistance factor at LC50 [fold]
CCN(CC)c1nc(C)cc(OP(=S)(OC)OC)n1 [pirimiphos-methyl]	18
Cc1c(COC(=O)[C@@H]2[C@H](/C=C(\Cl)C(F)(F)F)C2(C)C)cccc1-c1ccccc1 (racemic) [bifenthrin]	23
O=[N+]([O-])NC1=NCCN1Cc1ccc(Cl)nc1 [imidacloprid]	730
CC1(C)C(C=C(Cl)Cl)C1C(=O)OC(C#N)c1cccc(Oc2ccccc2)c1 (stereo not drawn) [α-cypermethrin]	80
